Measurements taken from patent US6770637B2, “Substituted 4-phenyl-pyridine compounds with activity as antagonists of neurokinin 1 receptors” (Hoffmann-La Roche Inc., priority 2000, dated 2004).

Each molecule was assayed against T1, human NK1 receptor (Homo sapiens, UniProt P25103) (assay: NK1 receptor binding assay, displacement of [3H]substance P). Conditions: affinity to the NK-1 receptor; human NK1 receptors in CHO cells (Semliki virus expression system); [3H]substance P 0.6 nM.
T1 construct: expressed in transfected cells; host or cells: CHO cells infected with the Semliki virus expression system; membrane suspension
Description: The affinity of tests compounds for the NK1 receptor was evaluated at human NK 1 receptors in CHO cells infected with the human NK1 receptor (using the Semliki virus expression system) and radiolabelled with [^3H]substance P (final concentration 0.6 nM.) Binding assays were performed in HEPES buffer (50 mM, pH 7.4) containing BSA (0.04%) leupeptin (8 μg/ml), MnCl2 (3 mM) and phosphoramidon (2 μM). Binding assays consisted of 250 μl of membrane suspension (1.25×10^5 cells/assay tube), […] of bugger of displacing agent and 125 μl of [^3H]substance P. Displacement curves were determined with at least seven concentrations of the compound. The assay tubes were incubated for 60 min at room temperature after which time the tube contents were rapidly filtered under vacuum through GF/C filters presoaked for 60 min with PEI (0.3%) with 2×2 ml washes of HEPES buffer (50 mM, pH 7.4). The radioactivity retained on the filters was measured by scintillation counting. All assays were performed in triplicate in at least 2 separate experiments.

T1 sequence (P25103 whole entry): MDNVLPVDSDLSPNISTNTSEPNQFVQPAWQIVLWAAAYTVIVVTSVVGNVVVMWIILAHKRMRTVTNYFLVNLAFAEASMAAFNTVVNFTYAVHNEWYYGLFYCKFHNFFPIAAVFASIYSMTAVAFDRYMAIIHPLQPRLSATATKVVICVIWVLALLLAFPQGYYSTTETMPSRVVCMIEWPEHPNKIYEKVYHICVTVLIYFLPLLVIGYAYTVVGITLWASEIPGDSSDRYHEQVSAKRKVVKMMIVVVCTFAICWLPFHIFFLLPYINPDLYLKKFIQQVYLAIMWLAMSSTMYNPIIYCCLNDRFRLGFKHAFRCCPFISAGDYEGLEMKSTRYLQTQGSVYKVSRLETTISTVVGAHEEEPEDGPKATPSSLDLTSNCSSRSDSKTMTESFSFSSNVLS

Ki [nM] | SMILES
2.69 | C#Cc1cc(-c2ccccc2C)c(N(C)C(=O)C(C)(C)c2cc(C(F)(F)F)cc(C(F)(F)F)c2)cn1 [Example 66, 2-(3,5-Bis-trifluoromethyl-phenyl)-N-(6-ethynyl-4-o-tolyl-pyridin-3-yl)-N-methyl-isobutyramide]
3.02 | Cc1noc(-c2cc(-c3ccccc3C)c(C(=O)N(C)Cc3cc(C(F)(F)F)cc(C(F)(F)F)c3)cn2)n1 [Example 62, N-(3,5-Bis-trifluoromethyl-benzyl)-N-methyl-6-(3-methyl-[1,2,4]oxadiazol-5-yl)-4-o-tolyl-nicotinamide]
1.66 | Cc1ccccc1-c1cc(OCCCO)ncc1C(=O)N(C)Cc1cc(C(F)(F)F)cc(C(F)(F)F)c1 [Example 113, N-(3,5-Bis-trifluoromethyl-benzyl)-6-(3-hydroxy-propoxy)-N-methyl-4-o-tolyl-nicotinamide]
0.832 | Cc1ccccc1-c1cc(C2=CCNCC2)ncc1C(=O)N(C)Cc1cc(C(F)(F)F)cc(C(F)(F)F)c1 [Example 42, 4-o-Tolyl-1′,2′,3′,6′-tetrahydro-[2,4′]bipyridinyl-5-carboxylic acid (3,5-bis-trifluoromethyl-benzyl)-methyl-amide]
2.63 | Cc1ccccc1-c1cc([S+]([O-])c2ccccn2)ncc1C(=O)N(C)Cc1cc(C(F)(F)F)cc(C(F)(F)F)c1 (racemic) [Example 99, (RS)-N-(3,5-Bis-trifluoromethyl-benzyl)-N-methyl-6-(pyridine-2-sulfinyl)-4-o-tolyl-nicotinamide]

The next lines start with the molecule.

SMILES | Ki [nM]
Cc1ccccc1-c1cc(NC(=O)CO)ncc1N(C)C(=O)C(C)(C)c1cc(C(F)(F)F)cc(C(F)(F)F)c1 [Example 13, 2-(3,5-Bis-trifluoromethyl-phenyl)-N-[6-(2-hydroxy-acetylamino)-4-o-tolyl-pyridin-3-yl]-N-methyl-isobutyramide] | 1.62
Cc1ccccc1-c1cc(N(C(=O)C2CC2)C(=O)C2CC2)ncc1N(C)C(=O)C(C)(C)c1cc(C(F)(F)F)cc(C(F)(F)F)c1 [Example 16, Cyclopropanecarboxylic acid (5-{[2-(3,5-bis-trifluoromethyl-phenyl)-2-methyl-propionyl]-methyl-amino}-4-o-tolyl-pyridin-2-yl)-cyclopropanecarbonyl-amide] | 3.16
Cc1ccccc1-c1cc(N(O)CCO)ncc1N(C)C(=O)C(C)(C)c1cc(C(F)(F)F)cc(C(F)(F)F)c1 [Example 8, 2-(3,5-Bis-trifluoromethyl-phenyl)-N-{6-[hydroxy-(2-hydroxy-ethyl)-amino]-4-o-tolyl-pyridin-3-yl}-N-methyl-isobutyramide] | 0.513
CC(=O)c1ccc(-c2cc(-c3ccccc3C)c(C(=O)N(C)Cc3cc(C(F)(F)F)cc(C(F)(F)F)c3)cn2)s1 [Example 38, 6-(5-Acetyl-thiophen-2-yl)-N-(3,5-bis-trifluoromethyl-benzyl)-N-methyl-4-o-tolyl-nicotinamide] | 2.14
Cc1ccccc1-c1cc(Cl)ncc1N(C)C(=O)C(C)(C)c1cc(C(F)(F)F)cc(C(F)(F)F)c1 [Example 26, 2-(3,5-Bis-trifluoromethyl-phenyl)-N-(6-chloro-4-o-tolyl-pyridin-3-yl)-N-methyl-isobutyramide] | 2.24
